Assay results from ChEMBL document CHEMBL3045197, “Design and synthesis of new 2-aryl, 3-benzyl-(1,3-oxazolidine or 1,3-thiazolidine)-4-ones as selective cyclooxygenase (COX-2) inhibitors” (Med Chem Res, 2010).

What was measured:
[1] = target: Prostaglandin G/H synthase 2 (Ovis aries) (UniProt P79208); experiment: Inhibition of Ovis aries (sheep) COX-2 by Chemoiluminescence assay
[2] = species: Ovis aries; experiment: Selectivity index, ratio of IC50 for Ovis aries (sheep) COX-1 to IC50 for Ovis aries (sheep) COX-2
[3] = target: Prostaglandin G/H synthase 1 (Ovis aries) (UniProt P05979); experiment: Inhibition of Ovis aries (sheep) COX-1 by Chemoiluminescence assay

Sequence of Prostaglandin G/H synthase 2 (Ovis aries) (P79208 whole entry, looked up): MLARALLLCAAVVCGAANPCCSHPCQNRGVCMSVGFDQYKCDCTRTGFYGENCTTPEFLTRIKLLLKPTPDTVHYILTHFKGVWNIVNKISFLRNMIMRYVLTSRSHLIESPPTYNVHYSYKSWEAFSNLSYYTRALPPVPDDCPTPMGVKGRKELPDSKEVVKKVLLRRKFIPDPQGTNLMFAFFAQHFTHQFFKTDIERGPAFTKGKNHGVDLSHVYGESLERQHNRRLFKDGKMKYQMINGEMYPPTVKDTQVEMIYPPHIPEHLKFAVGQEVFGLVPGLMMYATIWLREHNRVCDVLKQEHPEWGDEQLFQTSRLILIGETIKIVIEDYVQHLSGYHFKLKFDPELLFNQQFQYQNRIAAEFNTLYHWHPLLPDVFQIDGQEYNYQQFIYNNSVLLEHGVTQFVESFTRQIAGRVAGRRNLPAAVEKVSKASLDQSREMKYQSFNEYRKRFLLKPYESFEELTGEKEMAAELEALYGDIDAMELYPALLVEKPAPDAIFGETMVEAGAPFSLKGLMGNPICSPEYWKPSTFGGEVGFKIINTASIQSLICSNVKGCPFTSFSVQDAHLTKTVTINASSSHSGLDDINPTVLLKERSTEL

IC50 [1] [nM] | Ratio IC50 [2] | IC50 [3] [nM] | SMILES
320 | > 312 | > 100000 | CS(=O)(=O)c1ccc(C2SCC(=O)N2Cc2ccccc2)cc1 (configuration not stated)
210 | > 476 | > 100000 | CS(=O)(=O)c1ccc(C2OCC(=O)N2Cc2ccccc2)cc1 (configuration not stated)
340 | 222 | 75600 | CC1SC(c2ccc(S(C)(=O)=O)cc2)N(Cc2ccccc2)C1=O (racemic)
270 | 318 | 85900 | CC1OC(c2ccc(S(C)(=O)=O)cc2)N(Cc2ccccc2)C1=O (racemic)
